The record followed here is ChEMBL document CHEMBL4052781, “Discovery and structure-activity relationship of auriculatone: A potent hepatoprotective agent against acetaminophen-induced liver injury” (Bioorg Med Chem Lett, 2017).

Calls of active or inactive are those of the source. The calls are words filed in the database; no cut-off is given here.

Series [1] deals with L02. The series can be described thus: Hepatoprotective activity against APAP-induced cell injury in human HL-7702 cells assessed as survival rate at 10 uM pre-incubated for 24 hrs before APAP addition and measured 6 hrs post APAP challenge by MTT assay (reference value: 59.13%). It counts as functional. As to conditions: read-out: Survival. Background: Tetrazolium dyes change colour on reduction, which living cells bring about.

For series [2], the system named is L02. In words: Hepatoprotective activity against APAP-induced cell injury in human HL-7702 cells assessed as increase in survival rate at 0.1 uM pre-incubated for 24 hrs before APAP addition and measured 6 hrs post APAP challenge by MTT assay. The class given is functional, cell-based.
For series [3], the system named is L02. The series can be described thus: Hepatoprotective activity against APAP-induced cell injury in human HL-7702 cells assessed as increase in survival rate at 10 uM pre-incubated for 24 hrs before APAP addition and measured 6 hrs post APAP challenge by MTT assay. It counts as functional, cell-based.
For series [4], the system named is L02. The series can be described thus: Hepatoprotective activity against APAP-induced cell injury in human HL-7702 cells assessed as increase in survival rate at 1 uM pre-incubated for 24 hrs before APAP addition and measured 6 hrs post APAP challenge by MTT assay. It counts as functional, cell-based.
The test system of series [5] is L02. In words: Effect on APAP-induced depletion of GSH levels in human HL-7702 cells assessed as GSH level at 10 uM by colorimetric method (reference value: 59.68 +/- 1.16 au). The class given is functional.
In series [6] the test system is L02. In words: Hepatoprotective activity against APAP-induced cell injury in human HL-7702 cells assessed as survival rate at 10 uM pre-incubated for 24 hrs before APAP addition and measured 6 hrs post APAP challenge by MTT assay (reference value: 60.49 +/- 0.28%). As to conditions: read-out: Survival. It counts as functional.
Series [7] concerns L02. The series can be described thus: Hepatoprotective activity against APAP-induced cell injury in human HL-7702 cells assessed as survival rate at 5 uM pre-incubated for 24 hrs before APAP addition and measured 6 hrs post APAP challenge by MTT assay (reference value: 60.49 +/- 0.28%). The class given is functional. As to conditions: read-out: Survival.
The next series deals with CYP3A4 (Homo sapiens, UniProt P08684). The series can be described thus: Inhibition of CYP3A4 in human HL-7702 cells assessed as assessed as remaining enzyme activity by measuring reduction in metabolic conversion of nifedipine to dehydronifedipine at 10 uM by LC-MS/MS method. The class given is ADME, cell-based. As to conditions: probe nifedipine, read-out: Activity.
CYP3A4, sequence (P08684 whole entry): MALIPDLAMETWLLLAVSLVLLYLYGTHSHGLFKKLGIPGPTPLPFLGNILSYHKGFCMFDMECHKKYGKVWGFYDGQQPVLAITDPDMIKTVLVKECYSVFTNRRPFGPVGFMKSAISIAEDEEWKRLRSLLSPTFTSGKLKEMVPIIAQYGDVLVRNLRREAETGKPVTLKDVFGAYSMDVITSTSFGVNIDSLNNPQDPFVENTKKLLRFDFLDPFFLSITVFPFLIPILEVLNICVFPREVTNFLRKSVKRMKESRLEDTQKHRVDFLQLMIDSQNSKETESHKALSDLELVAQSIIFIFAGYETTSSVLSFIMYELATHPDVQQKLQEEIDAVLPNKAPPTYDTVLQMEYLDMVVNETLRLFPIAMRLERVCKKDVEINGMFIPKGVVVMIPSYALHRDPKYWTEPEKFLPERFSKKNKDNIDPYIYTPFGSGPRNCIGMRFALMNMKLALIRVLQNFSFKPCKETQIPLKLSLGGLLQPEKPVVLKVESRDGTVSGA
The subject of series [8] is L02. The series can be described thus: Hepatoprotective activity against APAP-induced cell injury in human HL-7702 cells assessed as survival rate at 1.25 uM pre-incubated for 24 hrs before APAP addition and measured 6 hrs post APAP challenge by MTT assay (reference value: 60.49 +/- 0.28%). It counts as functional. As to conditions: read-out: Survival.
In series [9] the test system is L02. The series can be described thus: Effect on APAP-induced depletion of GSH levels in human HL-7702 cells assessed as GSH level at 1 uM by colorimetric method (reference value: 59.68 +/- 1.16 au). The class given is functional.
Series [10] relates to L02. In words: Hepatoprotective activity against APAP-induced cell injury in human HL-7702 cells assessed as survival rate at 2.5 uM pre-incubated for 24 hrs before APAP addition and measured 6 hrs post APAP challenge by MTT assay (reference value: 60.49 +/- 0.28%). The class given is functional. As to conditions: read-out: Survival.
In another series the target is Cytochrome P450 3A4 (Homo sapiens, UniProt P08684). The series can be described thus: Inhibition of CYP3A4 in human HL-7702 cells assessed as reduction in metabolic conversion of nifedipine to dehydronifedipine by LC-MS/MS method. It counts as ADME, cell-based.
Cytochrome P450 3A4, sequence (P08684 whole entry): as above
Series [11] deals with L02. The series can be described thus: Effect on APAP-induced depletion of GSH levels in human HL-7702 cells assessed as GSH level at 0.1 uM by colorimetric method (reference value: 59.68 +/- 1.16 au). The class given is functional.
For series [12], the system named is L02. The series can be described thus: Hepatoprotective activity against APAP-induced cell injury in human HL-7702 cells assessed as survival rate at 0.625 uM pre-incubated for 24 hrs before APAP addition and measured 6 hrs post APAP challenge by MTT assay (reference value: 60.49 +/- 0.28%). It counts as functional. As to conditions: read-out: Survival.

For the compound `CC1(C)CC[C@@H]2C(=O)C[C@]3(C)C(=CC[C@@H]4[C@@]5(C)CC[C@H](O)C(C)(C)[C@@H]5CC[C@]43C)[C@@H]2C1`, the viability at 10 µM in the series on L02 [1] is 76 to 80%.
Take `CC1(C)CC[C@H]2[C@H](O)C[C@]3(C)C(=CC[C@@H]4[C@@]5(C)CC[C@H](O)C(C)(C)[C@@H]5CC[C@]43C)[C@@H]2C1`: in the series with L02 [2], the Activity entry is “inactive”. Besides, the Activity result with L02 [3] is “Active”. Moreover, in the series with L02 [1], the viability at 10 µM amounted to 65.5%.
For the compound `CC1(C)CC[C@]2(C(=O)O)CC[C@]3(C)C(=CC[C@@H]4[C@@]5(C)CC[C@H](O)C(C)(C)[C@@H]5CC[C@]43C)[C@@H]2C1` [OLEANOLIC_ACID], the viability at 10 µM in the series with L02 [1] was found to be 68.5%.
Regarding `CC(=O)O[C@H]1CC[C@]2(C)[C@H]3CC=C4[C@@H]5CC(C)(C)CC[C@H]5C(=O)C[C@@]4(C)[C@]3(C)CC[C@H]2C1(C)C`, the Activity entry in the series with L02 [2] was “inactive”. The Activity entry with L02 [3] is “Active”. The viability at 10 µM with L02 [1] turned out to be 67.1%.
Consider `CC1(C)CC[C@@]23CC[C@@]4(C)[C@]5(C)CC[C@H]6C(C)(C)[C@@H](O)CC[C@]6(C)C5=CC(=O)[C@]4(OC2=O)[C@@H]3C1`, for which the Activity result in the series on L02 [3] was “Active”.
As to `CC1(C)CC[C@H]2C(=O)C[C@]3(C)[C@@]4(O[C@@H]4C[C@@H]4[C@@]5(C)CC[C@H](O)C(C)(C)[C@@H]5CC[C@]43C)[C@@H]2C1`, in the series on L02 [2], the Activity result was “inactive”. For the same compound, the Activity result in the series with L02 [3] is “Active”. The viability at 10 µM in the series with L02 [1] worked out at 65.7%.
On to `CC1(C)CC[C@H]2CC[C@]3(C)C(=CC[C@@H]4[C@@]5(C)CC[C@H](O)C(C)(C)[C@@H]5CC[C@]43C)[C@@H]2C1`, for which, in the series on L02 [2], the Activity entry is “inactive”. Also, the Activity entry in the series with L02 [4] and in the series on L02 [3] was “Active” each time. For the same compound, the viability at 10 µM in the series on L02 [1] stood at 71.6%.
As to `CC1(C)CC[C@]2(C(=O)O)CC[C@]3(C)C(=CC(=O)[C@@H]4[C@@]5(C)CC[C@H](O)C(C)(C)[C@@H]5CC[C@]43C)[C@@H]2C1`, the Activity result with L02 [3] was “Active”.
With `CC1(C)CC[C@]2(CO)CC[C@]3(C)C(=CC[C@@H]4[C@@]5(C)CC[C@H](O)C(C)(C)[C@@H]5CC[C@]43C)[C@@H]2C1`, the Activity entry in the series on L02 [3] is “Active”.
For the compound `CC1(C)CC[C@H]2[C@@H](O)C[C@]3(C)C(=CC[C@@H]4[C@@]5(C)CC[C@H](O)C(C)(C)[C@@H]5CC[C@]43C)[C@@H]2C1`, in the series with L02 [2], the Activity result is “inactive”. Besides, in the series with L02 [3], the Activity result was “Active”. Besides, the viability at 10 µM with L02 [1] stood at 62.9%.
As for `CC1(C)CC[C@]2(C(=O)O)[C@H](O)C[C@]3(C)C(=CC[C@@H]4[C@@]5(C)CC[C@H](O)C(C)(C)[C@@H]5CC[C@]43C)[C@@H]2C1`, in the series on L02 [3], the Activity entry is “Active”.
Turning to `CC(=O)N[C@@H](CS)C(=O)O` [ACETYLCYSTEINE], the Activity in the series with L02 [5] was 102.49 a.u. Moreover, the Activity entry in the series with L02 [3] is “Active”. Moreover, the viability at 10 µM with L02 [6] came out at 82.3%.
In the case of `CC1(C)CC[C@H]2C(=O)C[C@]3(C)C(=CC[C@@H]4[C@@]5(C)CC[C@H](O)C(C)(C)[C@@H]5CC[C@]43C)[C@@H]2C1`, in the series with L02 [7], the viability at 5 µM stood at 76%. In addition, the activity at 10 µM on CYP3A4 came to 66%. In addition, in the series with L02 [8], the viability at 1.25 µM was determined as 68.6%. Moreover, the Activity is 54.37 a.u in the series with L02 [5], 55.62 a.u with L02 [9], “Dose-dependent effect” at Cytochrome P450 3A4 and 55.93 a.u with L02 [11]. Moreover, in the series on L02 [2], the Activity entry was “inactive”. Besides, in the series with L02 [10], the viability at 2.5 µM amounted to 74.5%. The Activity result in the series with L02 [4] is “Active”. The results for the viability at 10 µM with L02 [6] and in the series on L02 [1] were 80.1% and 78.3 to 80%, respectively. For the same compound, the viability at 0.625 µM with L02 [12] turned out to be 66.8%.
Consider `CC1(C)CC[C@]2(C(=O)O)CC[C@]3(C)C(=CC[C@@H]4[C@@]5(C)CCC(=O)C(C)(C)[C@@H]5CC[C@]43C)[C@@H]2C1`, for which, in the series with L02 [3], the Activity result is “Active”.
In the case of `CC1(C)CC[C@H]2C(=O)C[C@]3(C)C(=CC[C@@H]4[C@@]5(C)CCC(=O)C(C)(C)[C@@H]5CC[C@]43C)[C@@H]2C1`, in the series on L02 [2], the Activity result is “inactive”. Moreover, the Activity entry in the series on L02 [4] and in the series with L02 [3] was “Active” throughout. Further, the viability at 10 µM with L02 [1] was found to be 71.2%.
On to `CC1(C)CC[C@]2(C(=O)O)CC[C@]3(C)C(=C2C1)C=C[C@@H]1[C@@]2(C)CC[C@H](O)C(C)(C)[C@@H]2CC[C@]13C`, for which the Activity entry with L02 [3] was “Active”.
Turning to `CC1(C)CC[C@]2(C(=O)O)CC[C@]3(C)C(=CC=C4[C@@]5(C)CC[C@H](O)C(C)(C)[C@@H]5CC[C@]43C)[C@@H]2C1`, in the series with L02 [3], the Activity entry was “Active”.
